Assay results: patent US4332803A, “Benzanilide derivative” (Mead Johnson & Company, priority 1980, dated 1982)
Like-named read-outs stand apart in the source and are kept apart here.

What was measured:
[1] = test system: ventricular arrhythmia in mice produced by chloroform inhalation; test: Test I: antiarrhythmic activity for ventricular arrhythmia in mice produced by chloroform inhalation; assay type: in vivo; settings: for ED50: Mus musculus, ip, read-out: Antiarrhythmic activity, ED50
From the text: I. Antiarrhythmic activity for ventricular arrhythmia in mice
produced by chloroform inhalation; ED50 expressed as mg/kg
body weight, intraperitoneal administration, J. W. Lawson, […]

in vivo = settings: mouse, in vivo, po
From the text: (§1) II. AlD50 /ATD50 mouse treated orally; ALD50 is the
(§2) lethal dose for half the animals; ATD50 is the approximate
(§3) lowest dose where signs of physiologic or neurologic deficit
(§4) appear in half the animals, expressed as mg/kg body weight.

mouse = test: Test II: approximation of the oral toxicity in mice (ALD50/ATD50); settings: comparison among the tabulated compounds, mice
From the text: as §1, §2, §3, §4

clinical = settings: for half-life: human
Experimental: III. Time following oral dosing of humans with 75 mg. of encainide
hydrochloride for clearance (plasma concentration <20 ng./ml.)
from blood plasma; hours.
IV. Approximate half life in human blood plasma following oral
dosing with encainide hydrochloride; hours.
A. Extraction of Biological Fluid.
B. High Pressure Liquid Chromatography (HPLC) Conditions. […] These standards were treated as described above.

[2] = man, two or more hours following 50 mg. dose of encainide hydrochloride orally
Experimental: A. Extraction of Biological Fluid. To 1 ml of plasma or urine in a screw-capped tube there is added 0.2 ml of 0.5 M. Tris-HCl buffer (2-amino-2-hydroxymethyl-1,3-propanediol), pH 8.5, and 10 ml of n-butyl chloride containing 5% by volume of isopropanol. The sample is then shaken on an oscillating mixer followed by centrifugation to separate the phases. A 9 ml aliquot of the organic layer is removed and evaporated to dryness under a stream of nitrogen and the residue is redissolved in 100 mcl of ethanol. A 50 mcl aliquot of this solution is injected onto the column for high pressure liquid chromatography.
B. High Pressure Liquid Chromatography (HPLC) Conditions. A normal phase silicic acid column having dimensions 3.9 mm by 30 cm in length equipped with a variable wavelength UV detector set at 254 nm is used. The mobil phase employed consists of 500 ml of ethanol, 30 ml of water, and 0.1 ml of methanesulfonic acid at a flow rate of 1 ml per minute. A series of standards containing 0, 25, 100 and 500 ng/ml of each compound to be assayed was prepared using pooled human plasma. These standards were treated as described above. Quantification of the detector response was achieved by digital integration or measurement of peak heights. The standard curve for each component was constructed by linear regression of the detector response versus concentration from the plasma standards. […]

[3] = following treatment with encainide; cited from earlier work
[4] = mice, chloroform inhalation, intraperitoneal administration, ranges are of various determinations

In the case of COc1cc(C(=O)Nc2ccccc2CCC2CCCCN2C)ccc1O (stereo not drawn) [Compound A, 4-Hydroxy-3-methoxy-N-[2-[2-(1-methyl-2-piperidinyl)ethyl]phenyl]benzamide], the ED50 [1, 4] is reported as 9.5 mg/kg, the LD50 (in vivo) is reported as 250 mg/kg and the TD50 (in vivo) is reported as 31.3 to 62.5 mg/kg. The “Toxicity (in words)” value (mouse) was “reduced toxicity”, the half-life (clinical; in vivo, po) was 4 to 6 h and the “Presence in the blood (in words)” value (clinical; in vivo, po) was “more prolonged presence in the blood”. The “Time following oral dosing for clearance (plasma concentration <20 ng./ml.) from blood plasma” value (shortened to “Time following oral dosing for clearance”) (clinical; in vivo, po) was greater than 16 h and the “Concentration in blood plasma relative to Compound No. 89” value [2] was “substantially greater”.
With CN1CCCCC1CCc1ccccc1NC(=O)c1ccc(O)cc1 (stereo not drawn) [Compound No. 89, O-demethylencainide] the ED50 [1] was 1.7 to 2.8 mg/kg, the “Antiarrhythmic activity (in words)” value ([1]; comparison among the tabulated compounds, mice) was “somewhat more potent” and the LD50 (in vivo) was 25 to 50 mg/kg. For the same compound, the TD50 (in vivo) was 5 to 10 mg/kg, the “Toxicity (in words)” value (mouse) was “somewhat more toxic in mice” and the half-life (clinical; in vivo, po, 75 mg) was 4 to 6 h. The “Time following oral dosing for clearance” value (clinical; humans dosed orally with 75 mg. of encainide hydrochloride) was greater than 16 h and the “Amount in plasma relative to encainide” value [3] was “several times the concentration of encainide”.
Work on COc1ccc(C(=O)Nc2ccccc2CCC2CCCCN2C)cc1 (stereo not drawn) [Compound No. 107, encainide] yielded an ED50 [1, 4] of 5.3 to 15 mg/kg, an LD50 (in vivo) of 50 to 100 mg/kg and a TD50 (in vivo) of 5 to 10 mg/kg. For the same compound, the half-life (clinical; in vivo, po) was 2.5 to 3 h and the “Time following oral dosing for clearance” value (clinical; in vivo, po) was 6 h.
COc1cccc(C(=O)Nc2ccccc2CCC2CCCCN2C)c1 (stereo not drawn) [compound 108] showed an ED50 [1, 4] of 10 mg/kg, an LD50 (in vivo) of 100 mg/kg and a TD50 (in vivo) of 10 to 25 mg/kg.
With COc1ccc(C(=O)Nc2ccccc2CCC2CCCCN2C)cc1OC (stereo not drawn) [compound 109] the ED50 [1, 4] was 10 mg/kg, the LD50 (in vivo) was 100 mg/kg and the TD50 (in vivo) was 25 mg/kg.
Work on COc1ccc(C(=O)Nc2ccccc2CCC2CCCCN2)cc1 (stereo not drawn) [compound 139, N-demethylencainide] yielded an ED50 [1, 4] of 28 mg/kg, an LD50 (in vivo) of 147 mg/kg and a TD50 (in vivo) of 15.7 mg/kg.
